Data on 36 compounds can be found in ChEMBL document CHEMBL3301458, “MMV Malaria Box hERG screening”.

For data set [1], the target named is T1, hERG (Kv11.1, KCNH2) (Homo sapiens, UniProt Q12809). In words: in vitro.
Description: MMV: Malaria Box compounds were tested for inhibition of the human ether a go-go related gene (hERG), Kv11.1 channel, using IonWorks 384-well patch clamp electrophysiology at 11.1uM (3 independent assay plates up to 12 cells per concentration).
In data set [2] the target is T1, hERG (Kv11.1, KCNH2). Description: in vitro. This is another data set of the same source.
Description: MMV: Malaria Box compounds were tested for inhibition of the human ether a go-go related gene (hERG), Kv11.1 channel, using IonWorks 384-well patch clamp electrophysiology at 1.1uM (3 independent assay plates up to 12 cells per concentration).

Calls of active or inactive are those of the source. The rule behind the calls is not given here.

T1 sequence (Q12809 whole entry): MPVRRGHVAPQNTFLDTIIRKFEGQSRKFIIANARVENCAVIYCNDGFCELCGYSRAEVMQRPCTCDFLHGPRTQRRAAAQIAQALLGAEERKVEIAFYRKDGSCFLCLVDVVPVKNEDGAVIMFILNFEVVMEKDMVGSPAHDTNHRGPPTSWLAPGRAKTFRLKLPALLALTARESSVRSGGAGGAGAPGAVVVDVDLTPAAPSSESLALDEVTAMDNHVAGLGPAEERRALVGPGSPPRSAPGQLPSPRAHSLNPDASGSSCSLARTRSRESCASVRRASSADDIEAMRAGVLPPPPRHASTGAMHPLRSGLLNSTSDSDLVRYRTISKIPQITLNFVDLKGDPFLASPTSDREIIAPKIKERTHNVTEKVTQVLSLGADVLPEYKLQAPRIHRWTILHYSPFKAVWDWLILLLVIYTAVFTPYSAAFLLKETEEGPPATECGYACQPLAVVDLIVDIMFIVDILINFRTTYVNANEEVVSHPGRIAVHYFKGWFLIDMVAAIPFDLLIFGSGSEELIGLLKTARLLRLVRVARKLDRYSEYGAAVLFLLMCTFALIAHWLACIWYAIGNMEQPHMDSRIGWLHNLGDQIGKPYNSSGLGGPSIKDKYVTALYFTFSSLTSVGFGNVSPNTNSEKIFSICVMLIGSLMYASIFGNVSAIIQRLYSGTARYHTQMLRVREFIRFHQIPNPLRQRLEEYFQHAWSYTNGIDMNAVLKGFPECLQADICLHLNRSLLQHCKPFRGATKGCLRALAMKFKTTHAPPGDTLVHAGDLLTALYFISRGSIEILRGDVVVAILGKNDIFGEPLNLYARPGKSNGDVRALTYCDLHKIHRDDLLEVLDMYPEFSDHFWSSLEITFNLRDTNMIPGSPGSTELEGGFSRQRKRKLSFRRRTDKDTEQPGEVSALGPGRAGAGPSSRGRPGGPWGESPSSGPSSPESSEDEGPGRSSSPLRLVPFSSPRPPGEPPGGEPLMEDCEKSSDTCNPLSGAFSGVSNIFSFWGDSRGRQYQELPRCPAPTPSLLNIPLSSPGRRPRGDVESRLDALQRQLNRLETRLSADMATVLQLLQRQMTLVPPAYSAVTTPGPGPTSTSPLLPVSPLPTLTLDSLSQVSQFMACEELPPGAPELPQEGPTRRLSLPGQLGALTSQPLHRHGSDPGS

The term inhibition denotes the change of the read-out against control, counted positive when it falls. For `CCOc1ccc(Nc2ccnc3cc(Cl)ccc23)cc1`, the inhibition at 11.1 µM on hERG (Kv11.1, KCNH2) [1] amounted to 26%. Also, the inhibition at 1.1 µM on hERG (Kv11.1, KCNH2) [2] was 5%.
On the same counts, the results for `CN(C)c1ccc(-c2nc3cc(N)ccc3[nH]2)cc1` are 36% and 14%.
Consider `Cc1cc(C)cc(Nc2cc(C)nc3nc(C(F)(F)F)nn23)c1`, for which the inhibition at 11.1 µM against hERG (Kv11.1, KCNH2) [1] stood at 40%. In addition, on hERG (Kv11.1, KCNH2) [2], the inhibition at 1.1 µM stood at 20%.
In the same order, the values of `COc1ccc(C2N(C)c3ccccc3N2C)cc1` are -5% (inactive) and -13%.
In the same order, the values of `CCOc1c(Cl)cc(CNC(C)C(O)c2ccccc2)cc1OC` (configuration not stated) are 39% and -4%.
In the same order, the values of `CN1CCN(c2nc(Nc3ccc(O)cc3)nc3ccccc23)CC1` are 31% and 31%.
Turning to `OC(CNC1CCCCC1)Cn1c2ccc(I)cc2c2cc(I)ccc21` (configuration not stated), at hERG (Kv11.1, KCNH2) [1], the inhibition at 11.1 µM was 12% (inactive). For the same compound, the inhibition at 1.1 µM on hERG (Kv11.1, KCNH2) [2] was -5%.
In the case of `CN(N=O)C1=C(NC2CCCCC2)C(=O)c2ccccc2C1=O`, the inhibition at 11.1 µM at hERG (Kv11.1, KCNH2) [1] was 70% (active). For the same compound, the inhibition at 1.1 µM against hERG (Kv11.1, KCNH2) [2] was -2%.
Consider `OC(Cn1nnc2ccccc21)Cn1c2ccc(Br)cc2c2cc(Br)ccc21` (configuration not stated), for which the inhibition at 11.1 µM at hERG (Kv11.1, KCNH2) [1] was 17% (inactive). At hERG (Kv11.1, KCNH2) [2], the inhibition at 1.1 µM was determined as 21%.
In the same order, the values of `CC(C)(C)c1ccc(C(=O)Nc2c3c(nn2-c2cccc(Cl)c2)CSC3)cc1` are 0% (inactive) and 4%.
As for `CCOc1ccc(C2N(C)c3ccccc3N2C)cc1`, the inhibition at 11.1 µM at hERG (Kv11.1, KCNH2) [1] is 7% (inactive). In addition, the inhibition at 1.1 µM against hERG (Kv11.1, KCNH2) [2] turned out to be 2%.
In the same order, the values of `COc1ccc(CN2CCN(Cc3ccccc3)CC2)c(O)c1` are 66% (active) and 15%.
In the same order, the values of `C=C(C)CCC(C)N1CCC(N2CCC(C(=O)NCCc3ccccc3)CC2)CC1` (configuration not stated) are 71% (active) and 8%.
On the same counts, the results for `Oc1ccc(Br)cc1CN1CCN(Cc2cccc(F)c2)CC1` are 18% (inactive) and -1%.
As for `CCN(CC)CCCNc1ccnc2cc3ccccc3cc12`, the inhibition at 11.1 µM on hERG (Kv11.1, KCNH2) [1] was 23% (inactive). In addition, on hERG (Kv11.1, KCNH2) [2], the inhibition at 1.1 µM was -2%.
In the same order, the values of `O=c1nc(C=Cc2ccc(Br)cc2)oc2ccccc12` are 16% (inactive) and 8%.
In the same order, the values of `O=C(Nc1ccc(-c2nc3cc(NC(=O)c4ccc(Cl)cc4)ccc3[nH]2)cc1)c1ccc(Cl)cc1` are 28% and -9%.
Turning to `COc1ccc2nc(N)nc(C)c2c1`, the inhibition at 11.1 µM on hERG (Kv11.1, KCNH2) [1] is 4% (inactive). The inhibition at 1.1 µM against hERG (Kv11.1, KCNH2) [2] came to 10%.
In the same order, the values of `CCN(Cc1ccccc1)C1CCN(Cc2cc(Br)ccc2O)CC1` are 96% (active) and 18%.
For the compound `O=C(Nc1ccc(Cl)cc1)N1CCN(c2ccc3nncn3n2)CC1`, at hERG (Kv11.1, KCNH2) [1], the inhibition at 11.1 µM was 58% (active). Also, at hERG (Kv11.1, KCNH2) [2], the inhibition at 1.1 µM worked out at 0%.
On the same counts, the results for `Oc1ccccc1CNCC12CC3CC(CC(C3)C1)C2` are 41% and 20%.
In the same order, the values of `CCOC(=O)c1c(C)n(-c2ccc(Cl)cc2)c2ccc(OC(=O)C=Cc3ccccc3)cc12` are 9% (inactive) and 2%.
On the same counts, the results for `CCN(CC)c1ccc(NC(=O)c2cccs2)cc1` are 1% (inactive) and -1%.
Take `COc1ccccc1C(=O)ON=C(N)Cc1cccc2ccccc12`: the inhibition at 11.1 µM on hERG (Kv11.1, KCNH2) [1] stood at 34%. At hERG (Kv11.1, KCNH2) [2], the inhibition at 1.1 µM was 2%.
On the same counts, the results for `COc1ccccc1NC1=C(N2CCCCC2)C(=O)c2ccccc2C1=O` are 16% (inactive) and 4%.
In the same order, the values of `CCOc1ccc2nc(C)cc(Nc3ccc(Br)cc3)c2c1` are 16% (inactive) and 3%.
In the same order, the values of `Nc1ccc(-c2nc3cc(Oc4ccc(Oc5ccc6[nH]c(-c7ccc(N)cc7)nc6c5)cc4)ccc3[nH]2)cc1` are 23% (inactive) and 18%.
On to `FC(F)(F)c1cccc(CNC2CCN(CCc3ccccc3)CC2)c1`, for which the inhibition at 11.1 µM at hERG (Kv11.1, KCNH2) [1] was 97% (active). In addition, the inhibition at 1.1 µM on hERG (Kv11.1, KCNH2) [2] is 4%.
In the same order, the values of `Cc1cc(N(C)C)nc(Nc2ccc(NC(=O)Nc3ccccc3)cc2)n1` are -1% (inactive) and 2%.
On the same counts, the results for `Cc1ccc(NC(=O)Nc2cccc(Cl)c2)cc1F` are -1% (inactive) and -7%.
On the same counts, the results for `COC(=O)c1ccc(Cl)c2c1C1C=CCC1C(c1cccc3ccccc13)N2` (configuration not stated) are 110% (active) and 10%.
As to `CCOc1cc(Cl)c(C(C)NC(=O)c2ccccc2)cc1OCC` (configuration not stated), the inhibition at 11.1 µM on hERG (Kv11.1, KCNH2) [1] was 7% (inactive). For the same compound, on hERG (Kv11.1, KCNH2) [2], the inhibition at 1.1 µM is -6%.
On the same counts, the results for `OC(CNC1CCCC1)Cn1c2ccccc2c2ccccc21` (configuration not stated) are 55% (active) and 8%.
On the same counts, the results for `CCc1c(C)c(=N)c2ccccc2n1C` are 11% (inactive) and 6%.
In the case of `Cc1nc2ccccc2c(O)c1CC=C(Cl)Cl`, at hERG (Kv11.1, KCNH2) [1], the inhibition at 11.1 µM is -2% (inactive). Besides, the inhibition at 1.1 µM against hERG (Kv11.1, KCNH2) [2] was -1%.
On the same counts, the results for `CN1CCN(c2ccc(Nc3c4ccccc4nc4ccccc34)cc2)CC1` are 75% (active) and 24%.
